Counter-ions that a name gives are not always drawn.
Experiments:
HEK293S = test: Cell proliferation assay (CCK8), fixed concentration, control cell line; assay type: cell-based; settings: fixed test concentration per compound, Table 1 log[M]: Trequinsin −4.6, Fucoxanthin −4.8, PF04449613 −4, PF02545920 −4.6, TIC10 −5, PF04691502 −6.6, GSK1059615 −5.5, LY294002 −5, Axitinib −5, Temozolomide −5
Procedure: (§1) A wide range of approved and exploratory drugs are profiled for their ability to inhibit GBM cell proliferation. Their EC50 values against each separate cell line in the set are determined. […] Screening is performed in 96-well or 384-well or 1536-well formats.
(§2) Data was obtained from testing these compounds at fixed concentrations against normal control cells (HEK293S) alongside reference GBM cells (U87 and A172), to obtain a dataset (Table 1) within which to compare the pharmacological and pharmaceutical properties of compounds across a chosen chemotyping panel.
(§3) Data Obtained from Screening Compounds within a Chemotyping Panel Against a Control Cell Line (HEK293S) and Two Reference GBM Cell Lines (U87 and A172)

A172 [1] = test: Cell proliferation assay (CCK8), fixed concentration, reference GBM cell line A172; assay type: cell-based, human; settings: fixed test concentration per compound, Table 1 log[M]: Trequinsin −4.6, Fucoxanthin −4.8, PF04449613 −4, PF02545920 −4.6, TIC10 −5, PF04691502 −6.6, GSK1059615 −5.5, LY294002 −5, Axitinib −5, Temozolomide −5
Procedure: as §1, §2, §3

U87 [2] = test: Cell proliferation assay (CCK8), fixed concentration, reference GBM cell line U87; assay type: cell-based, human; settings: fixed test concentration per compound, Table 1 log[M]: Trequinsin −4.6, Fucoxanthin −4.8, PF04449613 −4, PF02545920 −4.6, TIC10 −5, PF04691502 −6.6, GSK1059615 −5.5, LY294002 −5, Axitinib −5, Temozolomide −5
Procedure: as §1, §2, §3

U118 = settings: GBM cell line U118; adapted from reference [13]; cited from earlier work
LN443 = settings: GBM cell line LN443; adapted from reference [13]; cited from earlier work
U87 [3] = settings: GBM cell line U87; adapted from reference [13]; cited from earlier work
A172 [4] = settings: GBM cell line A172; adapted from reference [13]; cited from earlier work

Molecule	% Inhibiton HEK293 (HEK293S)	% Proliferation HEK293 (HEK293S)	% Inhibiton A172 (A172 [1])	% Proliferation A172 (A172 [1])	% Inhibiton U87 (U87 [2])	% Proliferation U87 (U87 [2])	EC50 (U118)	EC50 (LN443)	EC50 (U87 [3])	EC50 (A172 [4])
O=c1cc(N2CCOCC2)oc2c(-c3ccccc3)cccc12 [LY294002]	2%	98%	42%	58%	−17%	117%	–	–	–	–
COC(=O)C[C@](O)(CCCC(C)(C)O)C(=O)O[C@@H]1C(OC)=C[C@]23CCCN2CCc2cc4c(cc2[C@H]13)OCO4 [Homoharringtonin]	–	–	–	–	–	–	1.14 µM	0.0289 µM	0.022 µM	–
CC(C)/N=c1\cc2n(-c3ccc(Cl)cc3)c3ccccc3nc-2cc1Nc1ccc(Cl)cc1 [Clofaximine]	–	–	–	–	–	–	19.7 µM	20.1 µM	8.61 µM	11.9 µM
COc1cccc2c1C(=O)c1c(O)c3c(c(O)c1C2=O)C[C@@](O)(C(=O)CO)C[C@@H]3O[C@H]1C[C@H](N)[C@@H](O)[C@H](C)O1 [Epirubicin]	–	–	–	–	–	–	0.0469 µM	0.0412 µM	0.0593 µM	0.0622 µM
COc1ccc(-c2cc3c(C)nc(N)nc3n([C@H]3CC[C@H](OCCO)CC3)c2=O)cn1 [PF04691502]	45%	55%	44%	56%	35%	65%	–	–	–	–
CC[C@]1(O)C[C@@H]2CN(CCc3c([nH]c4ccccc34)[C@@](C(=O)OC)(c3cc4c(cc3OC)N(C)[C@H]3[C@@](O)(C(N)=O)[C@H](O)[C@]5(CC)C=CCN6CC[C@]43[C@@H]65)C2)C1 [Vindesine sulfate]	–	–	–	–	–	–	0.67 µM	0.495 µM	0.414 µM	0.0232 µM
C[C@H](c1nc2c(cnn2C2CCOCC2)c(=O)[nH]1)N1CC(Oc2ccccc2)C1 [PF04449613]	10%	90%	61%	39%	−14%	114%	–	–	–	–
CC(C)[C@]12O[C@H]1[C@@H]1O[C@]13[C@]1(O[C@H]1C[C@H]1C4=C(CC[C@@]13C)C(=O)OC4)[C@@H]2O [Triptolide]	–	–	–	–	–	–	0.0101 µM	0.0308 µM	0.00653 µM	0.00833 µM
Fucoxanthin	76%	24%	66%	34%	26%	74%	–	–	–	–
O=C(O)C[C@H](O)C[C@H](O)/C=C/c1c(C2CC2)nc2ccccc2c1-c1ccc(F)cc1 [Pitavastatin]	–	–	–	–	–	–	1.92 µM	0.083 µM	3.52 µM	0.274 µM
CC[C@@]1(O)C(=O)OCc2c1cc1n(c2=O)Cc2cc3c(CN(C)C)c(O)ccc3nc2-1 [Topetecan]	–	–	–	–	–	–	0.184 µM	0.136 µM	0.167 µM	0.649 µM
Dactinmycin	–	–	–	–	–	–	0.0568 µM	0.0196 µM	0.437 µM	0.0993 µM
COc1cccc2c1C(=O)c1c(O)c3c(c(O)c1C2=O)C[C@@](O)(C(=O)CO)C[C@@H]3O[C@H]1C[C@H](N)[C@H](O)[C@H](C)O1 [Docorubicine]	–	–	–	–	–	–	0.0411 µM	0.0629 µM	0.0551 µM	0.0488 µM
COCc1c(C(C)C)nc(C(C)C)c(/C=C/[C@@H](O)C[C@@H](O)CC(=O)O)c1-c1ccc(F)cc1 [Cericastatin]	–	–	–	–	–	–	0.741 µM	0.024 µM	0.668 µM	0.0317 µM
COc1cc2c(cc1OC)-c1c/c(=N\c3c(C)cc(C)cc3C)n(C)c(=O)n1CC2 [Trequinsin]	59%	41%	37%	63%	11%	89%	–	–	–	–
Cn1nnc2c(C(N)=O)ncn2c1=O [Temozolomide]	0%	100%	13%	87%	5%	95%	–	–	–	–
CCc1c2c(nc3ccc(OC(=O)N4CCC(N5CCCCC5)CC4)cc13)-c1cc3c(c(=O)n1C2)COC(=O)[C@]3(O)CC [Irinitecan]	–	–	–	–	–	–	4.6 µM	4.01 µM	8.03 µM	7.97 µM
CC[C@]1(O)C[C@H]2CN(CCc3c([nH]c4ccccc34)[C@@](C(=O)OC)(c3cc4c(cc3OC)N(C=O)[C@H]3[C@@](O)(C(=O)OC)[C@H](OC(C)=O)[C@]5(CC)C=CCN6CC[C@]43[C@@H]65)C2)C1 [Vincrinstine]	–	–	–	–	–	–	1.19 µM	0.873 µM	1.32 µM	0.042 µM
Cc1ccccc1CN1C(=O)C2=C(CCN(Cc3ccccc3)C2)N2CCN=C12 [TIC10]	83%	17%	68%	32%	27%	73%	–	–	–	–
Cn1cc(-c2ccncc2)c(-c2ccc(OCc3ccc4ccccc4n3)cc2)n1 [PF02545920]	84%	16%	80%	20%	30%	70%	–	–	–	–
Nc1ncnc2c1ncn2[C@H]1C[C@H](O)[C@@H](CO)O1 [Deoxyadenosine]	–	–	–	–	–	–	0.59 µM	–	2.11 µM	1.77 µM
O=C1NC(=O)/C(=C/c2ccc3nccc(-c4ccncc4)c3c2)S1 [GSK1059615]	79%	21%	74%	26%	57%	43%	–	–	–	–
